From patent US8785614B2, “Aberrantly methylated genes in pancreatic cancer” (The Johns Hopkins University, priority 2003, dated 2014)
Read-outs that look alike come from different tables or passages of the source.

How the values were obtained:
[1] = test system: MiaPaCa2 pancreatic cancer cell line
Experimental: (§1) Mock-treated cells were cultured with the equivalent volume of PBS alone.
(§2) Total RNA was isolated from cultured cells using TRIZOL reagent (invitrogen, Carlsbad, Calif.) and purified using RNeasy Mini Kit (Qiagen, Valencia, Calif.). First- and second-stranded cDNA was synthesized from 10 μg of total RNA using 17-dT) primer (Genset Corp., La Jolla, Calif.) and Superscript Choice system (Invitrogen). Labeled cRNA was synthesized from the purified cDNA by in vitro transcription reaction using the BioArray High Yield RNA Transcript Labeling Kit (Enzo Diagnostics, Inc., Farmingdale, N.Y.) at 37° C. for 6 h. The cRNA was fragmented at 94° C. for 35 min. in a fragmentation buffer [40 mM Tris-acetate @ pH 8.1, 100 mM potassium acestate, and 30 mM magnesium acetate]. The fragmented cRNA was then hybridized to the Human Genome U133A chips (Affymetrix, Santa Clara, Calif.) with 18462 unique gene/EST transcripts at 45° C. for 16 h. The washing and staining procedure was performed in the Affymetrix Fluidics Station according to the manufacturer's instructions. The probes were then scanned using a laser scanner, and signal intensity for each transcript (background-subtracted and adjusted for noise) was calculated using Microarray Suite Software 5.0 (Affymetrix).
(§3) Fold change analysis of signal intensities obtained from oligonucleotide microarrays between the two treatment groups was performed using Data Mining software (Afrymetrix).
(§4) The global changes in gene expression proxies induced by 5Aza-dC in four pancreatic cancer cell lines (AsPCl, Hs766T, MiaPaCa2, and Panel) were determined using the Afrymetrix U133 oligonucleotide microarrays with 18462 probes sets (transcripts) covering over 13000 full-length sequences of known genes.

[2] = test system: four pancreatic cancer cell lines (AsPC1, Hs766T, MiaPaCa2, Panc1)
Experimental: as §1, §2, §3, §4

Nc1ncn([C@H]2C[C@H](O)[C@@H](CO)O2)c(=O)n1 [5Aza-dC, 5 aza 2′ deoxycytidine]
Fold-change after 5Aza-dC treatment ([1]; ANGPT2, MiaPaCa2): 2.27 fold | Fold-change after 5Aza-dC treatment ([1]; BARD1, MiaPaCa2): −1.3 fold | Fold-change after 5Aza-dC treatment ([1]; BNIP3, MiaPaCa2): 21.32 fold | Fold-change after 5Aza-dC treatment ([1]; BST2, MiaPaCa2): 8.59 fold | Fold-change after 5Aza-dC treatment ([1]; CACNA1G, MiaPaCa2): 1.61 fold | Fold-change after 5Aza-dC treatment ([1]; CCNE2, MiaPaCa2): 1.09 fold | Fold-change after 5Aza-dC treatment ([1]; CDH3, MiaPaCa2): 5.79 fold | Fold-change after 5Aza-dC treatment ([1]; CDKN1A (p21), MiaPaCa2): 7.04 fold | Fold-change after 5Aza-dC treatment ([1]; CDKN1C, MiaPaCa2): 2.28 fold | Fold-change after 5Aza-dC treatment ([1]; CLDN5, MiaPaCa2): 1.67 fold | Fold-change after 5Aza-dC treatment ([1]; CSF1, MiaPaCa2): 4.23 fold | Fold-change after 5Aza-dC treatment ([1]; DR3, MiaPaCa2): 2.12 fold | Fold-change after 5Aza-dC treatment ([1]; FOXE1, MiaPaCa2): 3.8 fold | Fold-change after 5Aza-dC treatment ([1]; GAGE1, MiaPaCa2): 6.7 fold | Fold-change after 5Aza-dC treatment ([1]; GAGE3, MiaPaCa2): 15.22 fold | Fold-change after 5Aza-dC treatment ([1]; GAGE4, MiaPaCa2): 47.6 fold | Fold-change after 5Aza-dC treatment ([1]; GAGE6, MiaPaCa2): 24.03 fold | Fold-change after 5Aza-dC treatment ([1]; GAGE7, MiaPaCa2): 54.35 fold | Fold-change after 5Aza-dC treatment ([1]; HOXA1, MiaPaCa2): 2.56 fold | Fold-change after 5Aza-dC treatment ([1]; IGF2, MiaPaCa2): 0.81 fold | Fold-change after 5Aza-dC treatment ([1]; IL1R1, MiaPaCa2): −1.77 fold | Fold-change after 5Aza-dC treatment ([1]; ISG20, MiaPaCa2): 21.28 fold | Fold-change after 5Aza-dC treatment ([1]; JPH3, MiaPaCa2): 1.4 fold | Fold-change after 5Aza-dC treatment ([1]; KLK10, MiaPaCa2): 136.95 fold | Fold-change after 5Aza-dC treatment ([1]; LDOC1, MiaPaCa2): −1.01 fold | Fold-change after 5Aza-dC treatment ([1]; LHX1, MiaPaCa2): 1.89 fold | Fold-change after 5Aza-dC treatment ([1]; MAGE1, MiaPaCa2): 2.27 fold | Fold-change after 5Aza-dC treatment ([1]; MATN1, MiaPaCa2): −1.01 fold | transcripts with >5-fold increase, share of the 18462 transcripts analyzed ([1]; MiaPaCa2): 1.4% | transcripts with substantial increase (>5-fold) in signal intensities ([1]; MiaPaCa2, vs mock-treated): 251 transcripts | Fold-change after 5Aza-dC treatment ([1]; NEFH, MiaPaCa2): 6.73 fold | Fold-change after 5Aza-dC treatment ([1]; NPTX2, MiaPaCa2): 6.4 fold | Fold-change after 5Aza-dC treatment ([1]; PAX6, MiaPaCa2): −1.12 fold | Fold-change after 5Aza-dC treatment ([1]; PDYN, MiaPaCa2): 3.48 fold | Fold-change after 5Aza-dC treatment ([1]; PLAT, MiaPaCa2): 6.4 fold | Fold-change after 5Aza-dC treatment ([1]; PLEK2, MiaPaCa2): 7.5 fold | Fold-change after 5Aza-dC treatment ([1]; SARP2, MiaPaCa2): 38.33 fold | Fold-change after 5Aza-dC treatment ([1]; SMARCA1, MiaPaCa2): −1.07 fold | Fold-change after 5Aza-dC treatment ([1]; ST14, MiaPaCa2): 1.48 fold | Fold-change after 5Aza-dC treatment ([1]; TIMP3, MiaPaCa2): 1 fold | Fold-change after 5Aza-dC treatment ([1]; TJP2, MiaPaCa2): 8.61 fold | Fold-change after 5Aza-dC treatment ([1]; TNF, MiaPaCa2): 31.63 fold | Fold-change after 5Aza-dC treatment ([1]; UCHL1, MiaPaCa2): 5.27 fold | Fold-change after 5Aza-dC treatment ([1]; WNT7A, MiaPaCa2): 6.24 fold | Fold-change after 5Aza-dC treatment ([1]; XAGE-1, MiaPaCa2): 12.99 fold | Fold-change after 5Aza-dC treatment ([1]; granulocytemacrophage colony-stimulating factor (M11734), MiaPaCa2): 3.97 fold | Fold-change after 5Aza-dC treatment ([1]; interferon, alpha-inducible protein (NM_022873), MiaPaCa2): 11.03 fold | Fold-change after 5Aza-dC treatment ([1]; p53-induced protein (PIGII), MiaPaCa2): 5.45 fold | Fold-change after 5Aza-dC treatment ([1]; reprimo, MiaPaCa2): −1.09 fold | Fold-change after 5Aza-dC treatment ([1]; stratifin (14-3-3 sigma), MiaPaCa2): 34.77 fold | Fold-change after 5Aza-dC treatment ([1]; stromal antigen 3 (STAG5), MiaPaCa2): 4.96 fold | Fold-change after 5Aza-dC treatment ([1]; testin, MiaPaCa2): 9.61 fold | changes in phenotypes during the treatment period [2]: did not result in apparent changes in their phenotypes | Induced by 5Aza-dC alone? ([2]; ADM): No | Induced by 5Aza-dC alone? ([2]; ANGPT1): No | Induced by 5Aza-dC alone? ([2]; AREG): No | Induced by 5Aza-dC alone? ([2]; ATF3): No | Induced by 5Aza-dC alone? ([2]; BIK): No | Induced by 5Aza-dC alone? ([2]; BIK (Table 3)): No | Induced by 5Aza-dC alone? ([2]; BNIP3): Yes | Induced by 5Aza-dC alone? ([2]; BST2): Yes | Induced by 5Aza-dC alone? ([2]; CACNA1G): Yes | Induced by 5Aza-dC alone? ([2]; CAPN5): No | Induced by 5Aza-dC alone? ([2]; CASP5): No | Induced by 5Aza-dC alone? ([2]; CCNA1): No | Induced by 5Aza-dC alone? ([2]; CDC25A): No | Induced by 5Aza-dC alone? ([2]; CDH8): Yes | Induced by 5Aza-dC alone? ([2]; CDKN1C): Yes | Induced by 5Aza-dC alone? ([2]; CDKN2A (p16)): No | Induced by 5Aza-dC alone? ([2]; CGR11): No | Induced by 5Aza-dC alone? ([2]; CHES1): No | Induced by 5Aza-dC alone? ([2]; CHFR): No | Induced by 5Aza-dC alone? ([2]; CLDN7): No | Induced by 5Aza-dC alone? ([2]; CLDN15): No | Induced by 5Aza-dC alone? ([2]; CRIP 1): No | Induced by 5Aza-dC alone? ([2]; CRLF1): No | Induced by 5Aza-dC alone? ([2]; CSF3): No | Induced by 5Aza-dC alone? ([2]; Cdc42 effector protein 2): No | Induced by 5Aza-dC alone? ([2]; DAPK2): No | Induced by 5Aza-dC alone? ([2]; DAZL): Yes | Induced by 5Aza-dC alone? ([2]; DEAD box RNA helicase (VASA)): No | Induced by 5Aza-dC alone? ([2]; EDR1): Yes | Induced by 5Aza-dC alone? ([2]; EGR4): No | Induced by 5Aza-dC alone? ([2]; EREG): No | Induced by 5Aza-dC alone? ([2]; GADD45B): No | Induced by 5Aza-dC alone? ([2]; GAGE1): Yes | Induced by 5Aza-dC alone? ([2]; GAGE2 (Table 2)): No | Induced by 5Aza-dC alone? ([2]; GAGE2 (Table 3)): Yes | Induced by 5Aza-dC alone? ([2]; GAGE3): Yes | Induced by 5Aza-dC alone? ([2]; GAGE4): Yes | Induced by 5Aza-dC alone? ([2]; GAGE6): Yes | Induced by 5Aza-dC alone? ([2]; GAGE7B (Table 2)): Yes | Induced by 5Aza-dC alone? ([2]; GAGE7B (Table 3)): No | Induced by 5Aza-dC alone? ([2]; GAS1): No | Induced by 5Aza-dC alone? ([2]; H1 historic family, member 2 (BC002649)): No | Induced by 5Aza-dC alone? ([2]; HEP27): No | Induced by 5Aza-dC alone? ([2]; HMOX1): No | Induced by 5Aza-dC alone? ([2]; HPSE): No | Induced by 5Aza-dC alone? ([2]; HSPA1A): No | Induced by 5Aza-dC alone? ([2]; ID2): No | Induced by 5Aza-dC alone? ([2]; ING1): No | Induced by 5Aza-dC alone? ([2]; ITM3): No | Induced by 5Aza-dC alone? ([2]; KLK12): Yes | Induced by 5Aza-dC alone? ([2]; KRT17): No | Induced by 5Aza-dC alone? ([2]; LHX2): Yes | Induced by 5Aza-dC alone? ([2]; LIPC): Yes | Induced by 5Aza-dC alone? ([2]; MAGE1): Yes | Induced by 5Aza-dC alone? ([2]; MAGEC1): No | Induced by 5Aza-dC alone? ([2]; MBD1): No | Induced by 5Aza-dC alone? ([2]; MLH1): No | Induced by 5Aza-dC alone? ([2]; MMP1): No | Induced by 5Aza-dC alone? ([2]; NGFR): Yes | Induced by 5Aza-dC alone? ([2]; NK4): Yes | Induced by 5Aza-dC alone? ([2]; NOTCH3): No | Induced by 5Aza-dC alone? ([2]; P-glycoprotein (mdr1)): No | Induced by 5Aza-dC alone? ([2]; PAX6): Yes | Induced by 5Aza-dC alone? ([2]; PIG11): Yes | Induced by 5Aza-dC alone? ([2]; PRG1): No | Induced by 5Aza-dC alone? ([2]; S100A2): Yes | Induced by 5Aza-dC alone? ([2]; S100P): No | Induced by 5Aza-dC alone? ([2]; SALL1): Yes | Induced by 5Aza-dC alone? ([2]; SARP2): Yes | Induced by 5Aza-dC alone? ([2]; SGCE): No | Induced by 5Aza-dC alone? ([2]; SPANXA1): No | Induced by 5Aza-dC alone? ([2]; SPANXC): No | Induced by 5Aza-dC alone? ([2]; STAT3): No | Induced by 5Aza-dC alone? ([2]; STC1): Yes | Induced by 5Aza-dC alone? ([2]; TERT): No | Induced by 5Aza-dC alone? ([2]; UCHL1): Yes | Induced by 5Aza-dC alone? ([2]; UCPH): No | Induced by 5Aza-dC alone? ([2]; ULBP2): Yes | Induced by 5Aza-dC alone? ([2]; WISP2): No | Induced by 5Aza-dC alone? ([2]; WIT-1): Yes | Induced by 5Aza-dC alone? ([2]; WNT4): Yes | Induced by 5Aza-dC alone? ([2]; XAGE-1): Yes | Induced by 5Aza-dC alone? ([2]; activity-regulated cytoskeleton-associated protein (APC)): No | transcripts specifically up-regulated by 5Aza-dC treatment in pancreatic cancers ([2]; after excluding those reactivated in HPDE): 590 transcripts | Induced by 5Aza-dC alone? ([2]; aik3): No | Induced by 5Aza-dC alone? ([2]; basic fibroblast growth factor (FGF)): No | Induced by 5Aza-dC alone? ([2]; candidate tumor suppressor gene 21 protein (AF040708)): No | Induced by 5Aza-dC alone? ([2]; connective tissue growth factor (M92934)): No | Induced by 5Aza-dC alone? ([2]; cytovillin 2 (VIL2, ezrin)): No | Induced by 5Aza-dC alone? ([2]; hemoglobin, alpha 1 (HBAI)): Yes | genes markedly up-regulated by 5Aza-dC treatment ([2]; in one or more pancreatic cancer cell lines but not in HPDE): 475 genes | Induced by 5Aza-dC alone? ([2]; interleukin 8): No | Induced by 5Aza-dC alone? ([2]; junction adhesion molecule (AF154005)): No | Induced by 5Aza-dC alone? ([2]; matrix metalloproteinase 8 (MMP3)): No | Induced by 5Aza-dC alone? ([2]; nucleotide-binding site protein 1 (AF298547)): No | Induced by 5Aza-dC alone? ([2]; period homolog 1 (PERI)): Yes | Induced by 5Aza-dC alone? ([2]; prostate differentiation factor (AF003934)): Yes | Induced by 5Aza-dC alone? ([2]; protease inhibitor 12 (neuroserpin) (SERPINU)): No | average number of transcripts induced per cell line ([2]; range 116-251 transcripts): ~200 transcripts | Induced by 5Aza-dC alone? ([2]; synovial sarcoma, X breakpoint 1 (BC001003)): Yes | Induced by 5Aza-dC alone? ([2]; synovial sarcoma, X breakpoint 2 (AF257500)): No | Induced by 5Aza-dC alone? ([2]; tissue factor pathway inhibitor-2 (L27624)): No | Induced by 5Aza-dC alone? ([2]; transketolase-like protein (X91817)): No
